Where a name gives a salt, the structure may show the parent alone.
What was measured:
ABCG2 = tested on: ABCG2; set-up: method as in earlier work; details: ref 32 (Marchetti et al., 2007); cited from earlier work
NCI-N87 cells = assay: Cell viability assay (CCK-8), NCI-N87; type: cell-based; details: Homo sapiens, Fig. 1a 48 h exposure, 0–1 µM, read-out: IC50 antiproliferative effect
Experimental: (§1) Human GC cell lines SNU-1, HGC27 and MGC803 were purchased from Peking Union Medical College, and the NCI-N87 cell line was a gift from You-yong Lv, Ph.D. (Peking University Cancer Hospital and Institute). Cells were cultured in RPMI 1640 medium and Dulbecco’s Modified Eagle Medium (Gibco-BRL, MD, USA), respectively, supplemented with 10% fetal bovine serum (Gibco-BRL), 100 U/ml penicillin (Gibco-BRL) and […] streptomycin (Gibco-BRL). Cells were incubated in a humidified incubator (37 °C) supplemented with 5% CO2.
(§2) SNU-1, HGC27, MGC803 and NCI-N87 cells (5000 cells/well) were seeded in 96-well plates and incubated overnight in complete medium, followed by exposure to gimatecan (0–1 µM) or irinotecan (0–1 µM) for 24, 48, or 72 h. Cell viability was measured using a Cell Counting Kit-8 (Dojindo, Kumamoto, Japan) according to the manufacturer’s instructions. Absorbance at 450 nm was measured using a microplate spectrophotometer. All experiments were repeated at least three times.

Ki-67 in GC PDX tissues = assay: Immunohistochemistry staining of Ki-67 in xenograft tissues; type: in vivo, NOD/SCID mice; details: day 22 of treatment
Experimental: After mice were sacrificed, xenograft tissues were isolated, and formalin-fixed paraffin embedded (FFPE) tissue sections were prepared. After deparaffinization, hydration, endogenous peroxidase treatment, and retrieval, 4-μm-thick FFPE sections were incubated with primary antibodies (1:100) overnight at 4 °C. The signal was assayed after incubation with IgG-HRP polymer (ZSGB-BIO, Beijing, China) and diaminobenzidine substrate. Sections were interpreted by pathologists from the Department of Pathology of Peking University Cancer Hospital who were blinded to this study. The scoring standard of Ki-67 was consistent with a previous report.
(§3) A PDX model was established by subcutaneously transplanting tumor tissues of a patient into NOD/SCID mice and PDX 1–5 indicated PDX models from 5 different GC patients. PDX tissues were subcutaneously inoculated into mice, and when the tumor size reached 150–250 mm^3, mice (n = 5 in each group) were treated with buffer control or inhibitors. Tumor volumes were presented as mean ± SD. The antitumor activity is depicted by tumor growth inhibition (TGI). […] (ΔT = tumor volume change of the drug-treated group, ΔC = tumor volume change of the control group on the final day of the study). *p < 0.05, **p < 0.01, ***p < 0.001. b Immunohistochemical staining for Ki-67 of xenografts on day 22 of treatment from four PDX models. The ki-67 index, marker of cell proliferation, was calculated as the proportion of positive tumor cell nuclei in all tumor cells examined and labeled in red in the images. Scale bar represents 100 µm TEXT PRINTED IN THE PICTURE: (b) Vehicle: PDX 2: 100%; PDX 3: 70%; PDX 4: 70%; PDX 5: 40% | (b) Irinotecan: PDX 2: 60%; PDX 3: 70%; PDX 4: 60%; PDX 5: 50% | (b) Gimatecan: PDX 2: 60%; PDX 3: 10%; PDX 4: 40%; PDX 5: 10% DOUBTS OF THE COPYIST ABOUT THIS PICTURE: Vehicle, PDX 3: 70% or 20% (blurred red print on the image) / Vehicle, PDX 4: 70% or 20% / Vehicle, PDX 5: 40%, first digit blurred / Irinotecan, PDX 2: 60% or 80% or 50% / Irinotecan, PDX 3: 70% or 20% / Irinotecan, PDX 4: 60% or 50% or 80% / Irinotecan, PDX 5: 50% or 60% or 30% / Gimatecan, PDX 2: 60% or 50% or 80% / Gimatecan, PDX 4: 40%, first digit blurred / The measure of the percentages in panel b is not printed in the picture

MGC803 cells = assay: Cell viability assay (CCK-8), MGC803; type: cell-based; details: Homo sapiens, MGC-803, Fig. S1B 48 h exposure, 0–1 µM, read-out: IC50 antiproliferative effect
Experimental: as §1
[…] Cell viability was measured using a Cell Counting Kit-8 (Dojindo, Kumamoto, Japan) according to the manufacturer’s instructions. Absorbance at 450 nm was measured using a microplate spectrophotometer. All experiments were repeated at least three times.

[1] = tested on: GC patient-derived xenografts (PDX); assay: Tumor growth inhibition in GC patient-derived xenograft (PDX) models; type: in vivo, NOD/SCID mice; details: for TGIs (%): gimatecan 0.2 mg/kg daily oral gavage, irinotecan 20 mg/kg weekly i.p., 3 weeks; for antitumor activity compared with control groups: all five xenografts
Experimental: Establishment and serial passaging of GC patient-derived xenografts (PDX) models were as previously described. All procedures were performed under sterile conditions at an SPF facility and carried out in accordance with the guide for the Care and Use of Laboratory Animals of the National Institutes of Health. Animal experiments were approved by an independent ethics committee of Peking University Cancer Hospital.
Five PDX tissues were subcutaneously inoculated into the flanks of 6-week-old female non-obese diabetic/severe combined immunodeficiency (NOD/SCID) mice. When tumors reached 150–250 mm^3, mice were randomized to three groups (N = 5/group) with similar tumor volumes: (1) control group (physiological saline 100 µl daily, by orally gavage), (2) gimatecan group (gimatecan 0.2 mg/kg daily, by orally gavage) and (3) irinotecan group (irinotecan 20 mg/kg via weekly intraperitoneal injection). All animals were treated for 3 weeks. Tumor size and body weight were measured twice a week, and tumor volume was calculated using the following formula: V = (L × W^2)/2 (V, volume; L, length; W, width). Tumor growth inhibition (TGI) was calculated using the following formula: TGI = 1 − ΔT/ΔC × 100% (ΔT = tumor volume changes of the drug treated group, ΔC = tumor volume changes of the control group on the final day of the study).
as §3

SNU-1 cells = assay: Cell viability assay (CCK-8), SNU-1; type: cell-based; details: Homo sapiens, SNU1, Fig. 1a 48 h exposure, 0–1 µM, read-out: IC50 antiproliferative effect
Experimental: as §1, §2

| SMILES | resistance resulting from ABCG2 expression (ABCG2) | IC50 (NCI-N87 cells) [nM] | Ki-67 (%) (Ki-67 in GC PDX tissues; PDX model 2, control 100) | Ki-67 (%) (Ki-67 in GC PDX tissues; PDX model 3, control 70) | Ki-67 (%) (Ki-67 in GC PDX tissues; PDX model 4, control 70) | Ki-67 (%) (Ki-67 in GC PDX tissues; PDX model 5, control 40) | IC50 (MGC803 cells) [nM] | TGIs (%) ([1]; PDX model 1) | TGIs (%) ([1]; PDX model 2) | TGIs (%) ([1]; PDX model 3) | TGIs (%) ([1]; PDX model 4) | TGIs (%) ([1]; PDX model 5) | antitumor activity compared with control groups [1] | IC50 (SNU-1 cells) [nM] |
| --- | --- | --- | --- | --- | --- | --- | --- | --- | --- | --- | --- | --- | --- | --- |
| CC[C@@]1(O)C(=O)OCc2c1cc1n(c2=O)Cc2c-1nc1ccccc1c2/C=N/OC(C)(C)C [Gimatecan, 7-t-butoxyiminomethylcamptothecin] | eight to tenfold | 88.2 | 60 | 10 | 40 | 10 | 3.29 | 110.1 | 106.6 | 84.4 | 91.7 | 108.7 | significant antitumor activity | 1.95 |
| CCc1c2c(nc3ccc(OC(=O)N4CCC(N5CCCCC5)CC4)cc13)-c1cc3c(c(=O)n1C2)COC(=O)[C@]3(O)CC [Irinotecan, irinotecan hydrochloride] | – | 142 | 60 | 70 | 60 | 50 | – | 75.4 | 76.1 | 24.1 | 15.1 | 40.6 | significant antitumor activity | 3250 |
